Measurements: patent US20260041774A1 (RepoCeuticals A/S, priority 2017, published 2026)
Like-named read-outs stand apart in the source and are kept apart here.

Assays:
rat = details: oral; cited from earlier work
[1] = system: oxidative damage in certain model systems; details: certain model systems (Oxenkrug 2005); cited from earlier work
[2] = Solubility of melatonin in aqueous solubilizer mixtures (overnight end-over-end rotation, filtration, HPLC); type: physicochemical; details: 20% (w/w) aqueous glycofurol, 25 °C, aqueous with cosolvent or surfactant or cyclodextrin, thermodynamic from solid
Experimental: Peaks were detected by UV absorption at 277 μm wavelength. […] To study the effect of adding DMSO to this medium, a medium consisting of 20% (w/w) glycofurol and 40% (w/w) DMSO in water was also prepared.

[3] = Description: The determination of what constitutes initial amount and final amount shall be made using the same experimental techniques. In the experiments presented below, initial and final amounts of degradation products were determined using HPLC as an exemplary measurement technique.
High pressure liquid chromatography (HPLC) elution profiles obtained from a 100×4.6 mm Phenomenex Kinetex column of XB-C18 silica (5 μm particle size) eluted with a linear gradient of solvent B (acetonitrile containing 0.1% v/v acetic acid) 10% to 50% in solvent A (water containing 0.1% v/v acetic acid) from 0.8 to 7.8 min, returning to 10% B at 8.8 min. Peaks were detected by UV absorption at […] wavelength. Overloading sample sizes were used to facilitate the detection of small amounts of breakdown products. […] (FIG. 1A) or 25° C. (FIG. 1B).
HPLC elution profiles were obtained as described for FIG. 1. […] (FIG. 2A) or 25° C. (FIG. 2B).
HPLC elution profiles were obtained as described for FIG. 1. […] (FIG. 3A) or 25° C. (FIG. 3B).

[4] = cited from earlier work; for solubility of melatonin in DMSO: room temperature (20 or 25° C.)
[5] = melatonin 10 mg/mL in 20% (w/w) aqueous glycofurol, 45 days at 25° C.
[6] = melatonin 10 mg/mL in 20% (w/w) glycofurol, 40% (w/w) DMSO in water, 45 days at 25° C.

C[S+](C)[O-] [DMSO, dimethyl sulfoxide]
LD50 (rat): 14500 mg/kg

CC(=O)NCCc1c[nH]c2ccc(O)cc12 [N-acetylserotonin]
protective effect against oxidative damage, times as strong as that of melatonin [1]: 5 to 20 times

CCO [ethanol]
LD50 (rat): 7060 mg/kg

COc1ccc2[nH]cc(CCNC(C)=O)c2c1 [melatonin, N-acetyl-5-methoxytryptamine]
solubility [2]: > 10 mg/mL
melatonin breakdown ([3]; 20% (w/w) glycofurol, 40% (w/w) DMSO in water, 45 days at 25° C.): no evidence of the melatonin breakdown
melatonin breakdown ([3]; 50% (w/w) DMSO, 45 days at 25° C.): no evidence of the melatonin breakdown
degradation peaks (8.1, 8.4 and 8.6 min) together, share of the recovered UV-absorbent material ([3]; 45 days, 10 mg/mL): 0.36%
melatonin peak at 6.0 min ([3]; melatonin 10 mg/mL in 20% (w/w) aqueous glycofurol, 45 days at 5° C.): 5871 absorption units
additional peak at 8.4 min not seen in the 5° C. sample [3, 5]: 8.314 absorption units
additional peak at 8.6 min not seen in the 5° C. sample [3, 5]: 5 absorption units
additional peak at […] not seen in the 5° C. sample [3, 5]: 7.973 absorption units
melatonin peak at 6.0 min [3, 5]: 5831 absorption units
melatonin peak at 6.0 min ([3]; melatonin 10 mg/mL in 20% (w/w) glycofurol, 40% (w/w) DMSO in water, 45 days at 5° C.): 6831 absorption units
additional peaks of UV-absorbent material [3, 6]: no additional peaks
melatonin peak at 6.0 min [3, 6]: 6851 absorption units
melatonin peak at 6.0 min ([3]; melatonin 10 mg/mL in 50% (w/w) aqueous DMSO, 45 days at 5° C.): 8771 absorption units
additional peaks ([3]; melatonin 10 mg/mL in 50% (w/w) aqueous DMSO, 45 days at 5° C. or 25° C.): No additional peaks
melatonin peak at 6.0 min ([3]; melatonin 10 mg/mL in 50% (w/w) aqueous DMSO, 45 days at 25° C.): 8771 absorption units
decline in the melatonin concentrations ([3]; solutions 1), 2) and 3), sealed tubes, 25° C., HPLC on days 0, 10, 17, 31 and 45): no significant decline
solubility of melatonin in ethanol ([4]; 20° C., EC SCCS/1315/10, 2010): 182 mg/mL
solubility of melatonin in ethanol/water (40/60 v/v) mixture ([4]; 20° C.): 64 mg/mL
solubility of melatonin in water ([4]; 20° C.): approximately 2 g/L
solubility of melatonin in water ([4]; 50° C.): ~5 mg/mL
solubility of melatonin in DMSO ([4]; source MedChem): ≤ 200 mM
solubility of melatonin in DMSO ([4]; source abcam): ≤ 100 mM
solubility of melatonin in DMSO ([4]; source tocris): ≤ 50 mM
